8 molecules from patent US9938261B2, “Heterocyclic compounds and methods of use thereof” (AMBIT BIOSCIENCES CORPORATION, priority 2011, dated 2018) can be followed below.

Read-outs that look alike come from different tables or passages of the source.

Assay [1] deals with T1, CSF1R (Homo sapiens, UniProt P07333). The experiment in a line: HEK293 CSF1R phosphorylation MSD assay. Also noted: expressed in transfected cells; host or cells: HEK293. As to conditions: read-out: HEK293 pCSF1R M-CSF MSD:IC50. It counts as cell-based. The protocol:
The compounds disclosed herein were tested in a CSF1R phosphorylation assay to determine their cellular potency against CSF1R. A HEK293 cell line expressing CSF1R fused to FK506 binding protein (FKBP) as a molecular tag was generated. Inhibition of CSF1R kinase activity will prevent ligand-stimulated autophosphorylation of the CSF1R-FKBP in intact cells. Subsequent cell lysates are assayed in a sandwich ELISA employing the electrochemiluminescent Meso Scale Discovery (MSD) technology for the presence of the phosphorylated (p)CSF1R-FKBP. This assay determines the potency of compounds as CSF1R inhibitors by measuring the reduction in the amount of pCSF1R with increasing doses of compounds added to the cells prior to M-CSF stimulation.
On day one of the experiment, HEK293-CSF1R-FKPB cells, maintained in DMEM, with L-glutamine (Mediatech), 10% FBS, and 100 units/mL Penicillin/Streptomycin, were seeded at 50,000 cell/well in a volume of 100 μL per well in 96-well Cell Bind plates (Costar). The cells were cultured overnight at 37° C. under 5% CO2. To prepare the plates used in the MSD assay, a 330 nM biotin-FK506 (in TBS pH 7.2) solution was added at 30 μL per well to streptavidin-coated 96-well plates (MSD), and incubated overnight at room temperature, shaking at 500 rpm on an orbital shaker.
On day two, compounds diluted in DMSO were added to the cells in duplicate plates at 9 different concentrations with half-log intervals, plus DMSO only control, alongside a reference compound serving as a positive control. Final DMSO concentration was 0.5% in a volume of 200 μL per well. The compounds were allowed to incubate with the cells for 2 h at 37° C. under 5% CO2. At the end of the incubation, human M-CSF (R&D Systems) was added for 5 min to a final concentration of 50 ng/mL to stimulate CSF1R phosphorylation. Cells were lysed for 20 min, and the lysates were applied to the washed, FK506-coated MSD plates, and incubated overnight at 4° C. shaking at 500 rpm.
On day three, the MSD plates were washed, and the captured CSF1R-FKBP was assayed sequentially for phosphorylation using mouse anti-phosphotyrosine antibody (Millipore) and Sulfo-TAG goat anti-mouse IgG antibody (MSD), and detected on a Sector Imager 6000 instrument (MSD).
A single IC50 value for each compound was determined by averaging the IC50s of the duplicates calculated using Igor Pro 6 software, and represents the compound concentration that achieves a 50% inhibition of ligand-induced CSF1R phosphorylation compared to DMSO control.

In the next assay the target is T2, PDGFRβ (Homo sapiens, UniProt P09619).
T2 construct: made in house
T2 sequence (P09619 33-1106): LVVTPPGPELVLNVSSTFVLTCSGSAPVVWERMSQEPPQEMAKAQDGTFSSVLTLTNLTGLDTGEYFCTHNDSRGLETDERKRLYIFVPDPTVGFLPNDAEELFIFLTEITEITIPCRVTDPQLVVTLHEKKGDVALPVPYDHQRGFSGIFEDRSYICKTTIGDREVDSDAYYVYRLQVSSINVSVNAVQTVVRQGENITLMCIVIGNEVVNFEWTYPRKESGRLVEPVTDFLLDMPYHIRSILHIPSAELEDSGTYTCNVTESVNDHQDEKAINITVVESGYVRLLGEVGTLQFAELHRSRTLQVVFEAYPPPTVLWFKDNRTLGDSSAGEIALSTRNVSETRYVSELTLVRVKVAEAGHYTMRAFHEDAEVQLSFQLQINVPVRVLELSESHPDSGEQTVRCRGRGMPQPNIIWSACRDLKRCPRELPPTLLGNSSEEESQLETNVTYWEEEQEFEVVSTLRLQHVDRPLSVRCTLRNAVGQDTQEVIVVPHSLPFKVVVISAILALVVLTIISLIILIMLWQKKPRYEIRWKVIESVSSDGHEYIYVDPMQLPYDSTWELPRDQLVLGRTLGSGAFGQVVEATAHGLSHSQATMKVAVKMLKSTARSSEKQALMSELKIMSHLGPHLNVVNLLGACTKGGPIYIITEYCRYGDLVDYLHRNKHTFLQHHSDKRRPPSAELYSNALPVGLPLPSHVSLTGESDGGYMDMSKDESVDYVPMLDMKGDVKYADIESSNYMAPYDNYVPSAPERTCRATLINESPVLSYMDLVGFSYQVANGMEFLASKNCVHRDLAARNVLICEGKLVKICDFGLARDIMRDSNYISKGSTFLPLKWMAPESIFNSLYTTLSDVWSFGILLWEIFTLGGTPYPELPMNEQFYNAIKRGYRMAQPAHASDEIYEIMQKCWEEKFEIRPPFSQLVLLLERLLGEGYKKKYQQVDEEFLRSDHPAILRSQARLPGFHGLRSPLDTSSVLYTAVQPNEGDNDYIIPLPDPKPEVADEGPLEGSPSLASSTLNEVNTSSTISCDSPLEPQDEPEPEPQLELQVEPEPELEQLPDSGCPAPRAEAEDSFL
The experiment in a line: Competition binding assay, PDGFRβ Kd. The protocol: (§1) Competition binding assays used herein were developed, validated and performed as described in Fabian et al., Nature Biotechnology 2005, 23, 329-336. Kinases were produced as fusions to T7 phage (See, Fabian et al. or WO04/015142) or alternatively, the kinases were expressed in HEK-293 cells and subsequently tagged with DNA for PCR detection (See, WO08/005310). For the binding assays, streptavidin-coated magnetic beads were treated with biotinylated affinity ligands for 30 min at room temperature to generate affinity resins. The liganded beads were blocked with excess biotin and washed with blocking buffer (SeaBlock (Pierce), 1% BSA, 0.05% Tween 20, 1 mM DTT) to remove unbound ligand and to reduce non-specific binding. Binding reactions were assembled by combining kinase, liganded affinity beads, and test compounds in 1× binding buffer (20% SeaBlock, 0.17×PBS, 0.05% Tween 20, 6 mM DTT). Test compounds were prepared as 100× stocks in DMSO and diluted into the aqueous environment. Kds were determined using an eleven point threefold serial dilutions. DMSO or control compounds were was added to control assays lacking a test compound. Primary screen assays were performed in polypropylene 384-well plates in a final volume of 20-40 μL, while Kd determinations were performed in polystyrene 96-well plates in a final volume of 135 μL. The assay plates were incubated at room temperature with shaking for 1 hour to allow the binding reactions to reach equilibrium, and the affinity beads were washed extensively with wash buffer (1×PBS, 0.05% Tween 20) to remove unbound protein. The beads were then resuspended in elution buffer (1×PBS, 0.05% Tween […] non-biotinylated affinity ligand) and incubated at room temperature with shaking for 30 min. The kinase concentration in the eluates was measured by quantitative PCR.

For the next assay, the target named is T3, FLT3 (Homo sapiens, UniProt P36888).
T3 construct: made in house
T3 sequence (P36888 27-993): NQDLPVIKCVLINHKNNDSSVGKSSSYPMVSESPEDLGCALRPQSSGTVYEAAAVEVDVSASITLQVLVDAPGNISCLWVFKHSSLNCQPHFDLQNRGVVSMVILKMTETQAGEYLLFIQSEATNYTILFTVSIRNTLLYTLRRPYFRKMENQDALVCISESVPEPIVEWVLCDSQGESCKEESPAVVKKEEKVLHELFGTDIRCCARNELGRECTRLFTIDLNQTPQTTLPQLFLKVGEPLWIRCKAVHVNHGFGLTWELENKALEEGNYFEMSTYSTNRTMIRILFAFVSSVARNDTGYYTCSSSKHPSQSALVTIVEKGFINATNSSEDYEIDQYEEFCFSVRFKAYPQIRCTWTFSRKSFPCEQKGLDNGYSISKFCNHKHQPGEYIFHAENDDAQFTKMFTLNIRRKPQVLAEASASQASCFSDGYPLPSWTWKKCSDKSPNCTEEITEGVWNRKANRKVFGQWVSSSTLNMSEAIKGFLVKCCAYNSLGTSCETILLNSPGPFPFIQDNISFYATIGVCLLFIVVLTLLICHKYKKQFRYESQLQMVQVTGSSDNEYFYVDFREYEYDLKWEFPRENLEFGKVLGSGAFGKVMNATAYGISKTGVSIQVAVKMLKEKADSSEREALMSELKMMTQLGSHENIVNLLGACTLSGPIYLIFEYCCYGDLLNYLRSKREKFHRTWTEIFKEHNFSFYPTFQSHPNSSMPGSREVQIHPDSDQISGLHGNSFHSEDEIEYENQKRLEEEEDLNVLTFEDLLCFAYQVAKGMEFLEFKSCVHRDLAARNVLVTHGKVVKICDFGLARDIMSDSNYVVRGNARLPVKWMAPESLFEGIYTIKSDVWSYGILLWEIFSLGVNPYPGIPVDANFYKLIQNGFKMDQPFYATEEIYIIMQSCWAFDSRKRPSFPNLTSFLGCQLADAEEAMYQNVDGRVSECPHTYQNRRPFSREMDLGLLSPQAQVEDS
The experiment in a line: Competition binding assay, FLT3 Kd. The protocol:
as §1

Another assay addresses T4, KIT (Homo sapiens, UniProt P10721).
T4 construct: made in house
The experiment in a line: Competition binding assay, KIT Kd. The protocol: as §1

Another assay relates to M-NFS-60 cells. The experiment in a line: M-NFS-60 cell proliferation assay (Alamar Blue). The class given is cell-based, mouse. As to conditions: Mus musculus, read-out: CSF1R M-NFS-60 CTB:IC50. The protocol:
The compounds disclosed herein were tested in an M-NFS-60 cell proliferation assay to determine their cellular potency against CSF1R. M-NFS-60s are mouse monocytic cells that depend on the binding of the ligand M-CSF to its receptor, CSF1R, to proliferate. Inhibition of CSF1R kinase activity will cause reduced growth and/or cell death. This assay assesses the potency of compounds as CSF1R inhibitors by measuring the reduction of Alamar Blue reagent by viable cells.
On day one of the experiment, M-NFS-60 cells were maintained in RPMI complete medium (Omega Scientific) plus 10% FBS supplemented with 20 ng/mL of M-CSF (R&D Systems). 96-well TC-treated, flat bottom plates were seeded at 10,000 cell/well at a volume of 100 μL per well. The cells were cultured overnight at 37° C. under 5% CO2.
On day two, compounds were added to the cells at 9 different concentrations, with half-log intervals alongside a control reference compound serving as a positive control. Final DMSO concentration was kept at 0.5% for a final volume of 200 μL. The compounds were allowed to incubate with the cells for 72 hours at 37° C. under 5% CO2.
On day five of the experiment, 40 μl of Alamar Blue reagent was added to each well and allowed to incubate for 3 hours. Alamar Blue fluorescence was read using SoftMax Pro software at 560 nm (excitation) and 590 nm (emission). IC50s were generated as an average of duplicates and represents the concentration of test compound that achieves 50% inhibition of cellular proliferation compared to control.
For orientation: The colour change of resazurin is a common sign of viable cells or microbes.

The target in assay [2] is T1, CSF1R. The experiment in a line: Competition binding assay, CSF1R Kd. More on the design: made in house. The protocol: as §1
The mark [3] stands for this setting: 2 h compound, human M-CSF 50 ng/mL for 5 min.
Where [4] appears, read: 72 hours incubation, M-CSF 20 ng/mL.

T1 sequence (P07333 20-972): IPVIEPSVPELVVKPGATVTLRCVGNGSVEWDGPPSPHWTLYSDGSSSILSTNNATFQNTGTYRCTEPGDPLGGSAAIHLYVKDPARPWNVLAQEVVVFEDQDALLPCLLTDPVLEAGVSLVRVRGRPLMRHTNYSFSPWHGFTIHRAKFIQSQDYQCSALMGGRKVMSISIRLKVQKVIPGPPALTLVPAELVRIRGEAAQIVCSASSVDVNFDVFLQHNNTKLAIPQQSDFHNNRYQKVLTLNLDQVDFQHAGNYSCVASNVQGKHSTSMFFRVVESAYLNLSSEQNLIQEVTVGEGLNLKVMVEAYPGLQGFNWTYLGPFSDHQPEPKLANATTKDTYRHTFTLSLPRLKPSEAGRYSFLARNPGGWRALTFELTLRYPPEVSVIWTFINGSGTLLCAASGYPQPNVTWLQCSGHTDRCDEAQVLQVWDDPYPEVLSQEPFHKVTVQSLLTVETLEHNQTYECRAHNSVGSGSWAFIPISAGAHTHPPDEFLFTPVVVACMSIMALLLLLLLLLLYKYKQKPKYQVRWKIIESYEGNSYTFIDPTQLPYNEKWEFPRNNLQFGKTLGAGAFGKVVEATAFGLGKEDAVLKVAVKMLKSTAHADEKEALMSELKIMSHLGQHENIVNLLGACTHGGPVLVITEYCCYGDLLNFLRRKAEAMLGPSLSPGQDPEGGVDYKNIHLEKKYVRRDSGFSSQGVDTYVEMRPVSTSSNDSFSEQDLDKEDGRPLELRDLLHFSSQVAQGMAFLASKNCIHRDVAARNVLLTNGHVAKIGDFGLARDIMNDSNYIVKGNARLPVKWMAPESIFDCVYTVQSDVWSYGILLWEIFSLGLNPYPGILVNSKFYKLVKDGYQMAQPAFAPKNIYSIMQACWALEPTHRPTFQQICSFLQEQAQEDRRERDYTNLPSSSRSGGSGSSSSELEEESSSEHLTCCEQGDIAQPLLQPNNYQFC
T4 sequence (P10721 26-976): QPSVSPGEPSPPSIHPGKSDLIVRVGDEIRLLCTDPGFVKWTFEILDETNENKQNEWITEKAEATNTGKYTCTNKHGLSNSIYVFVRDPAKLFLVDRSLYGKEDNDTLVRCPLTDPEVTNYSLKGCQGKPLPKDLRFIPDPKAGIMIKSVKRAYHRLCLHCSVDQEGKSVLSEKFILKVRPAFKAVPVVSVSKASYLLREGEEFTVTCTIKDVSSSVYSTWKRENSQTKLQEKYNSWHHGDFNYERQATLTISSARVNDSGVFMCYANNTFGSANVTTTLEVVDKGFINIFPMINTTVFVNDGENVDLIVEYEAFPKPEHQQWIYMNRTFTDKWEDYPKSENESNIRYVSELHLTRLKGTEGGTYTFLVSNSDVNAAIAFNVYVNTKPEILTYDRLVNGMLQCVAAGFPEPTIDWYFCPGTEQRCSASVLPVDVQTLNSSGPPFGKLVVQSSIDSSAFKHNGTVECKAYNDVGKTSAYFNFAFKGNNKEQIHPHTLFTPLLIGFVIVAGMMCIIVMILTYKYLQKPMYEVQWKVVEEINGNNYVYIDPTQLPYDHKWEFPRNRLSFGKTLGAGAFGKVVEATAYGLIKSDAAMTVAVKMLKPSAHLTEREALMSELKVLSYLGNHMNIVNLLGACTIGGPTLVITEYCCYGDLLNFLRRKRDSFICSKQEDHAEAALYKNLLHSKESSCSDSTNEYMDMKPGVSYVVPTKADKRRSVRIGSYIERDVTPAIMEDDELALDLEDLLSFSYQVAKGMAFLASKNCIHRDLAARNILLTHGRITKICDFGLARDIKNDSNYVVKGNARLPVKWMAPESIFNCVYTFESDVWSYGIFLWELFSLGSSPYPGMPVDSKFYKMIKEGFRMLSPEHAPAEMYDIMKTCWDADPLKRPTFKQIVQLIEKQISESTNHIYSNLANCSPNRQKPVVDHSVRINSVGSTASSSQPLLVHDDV

As usually defined, the IC50 is the point on the concentration scale where inhibition reaches its midpoint. One may read the Kd as the equilibrium constant for the complex coming apart. Low readings indicate a tighter complex, high ones a looser complex. For `O[C@H]1CCCC[C@H]1Nc1nc2ccc(Cn3cnc4ccccc43)cc2s1` (racemic) [Example 1, 2-((6-((1H-benzo[d]imidazol-1-yl)methyl)benzo[d]thiazol-2-yl)amino)cyclohexanol], the figures for the IC50 on CSF1R [1] (setting [3]) and in the assay on M-NFS-60 cells (setting [4]) were 50 to 200 nM and 50 to 400 nM, respectively. For the same molecule, the Kd lay within 50 to 500 nM at PDGFRβ, 1000 to 5000 nM on FLT3, 100 to 500 nM on KIT and 5 to 20 nM on CSF1R [2].

`COc1cc2ncn(Cc3ccc4nc(NC5CCOC5)sc4c3)c2cc1OC` (racemic) [Example 25, (R,S)-6-((5,6-dimethoxy-1H-benzo[d]imidazol-1-yl)methyl)-N-(tetrahydrofuran-3-yl)benzo[d]thiazol-2-amine acetic acid]: the IC50 on CSF1R [1] (setting [3]) was over 500 nM; with M-NFS-60 cells (setting [4]), over 1500 nM. Besides, the Kd at PDGFRβ is over 2000 nM; on FLT3, over 5000 nM; at KIT, over 2000 nM; on CSF1R [2], over 50 nM.

Take `COc1cc2ncn(Cc3ccc4nc(N[C@@H]5CCCCC5O)sc4c3)c2cc1OC` (stereo in doubt) [Example 2, (1R,2R)-2-((6-((5,6-dimethoxy-1H-benzo[d]imidazol-1-yl)methyl)benzo[d]thiazol-2-yl)amino)cyclohexanol]: the figures for the IC50 on CSF1R [1] (setting [3]) and in the assay with M-NFS-60 cells (setting [4]) were at most 50 nM and 50 to 400 nM, respectively. The dissociation constant Kd on PDGFRβ lay within 50 to 500 nM; at FLT3, 200 to 1000 nM; at KIT, 100 to 500 nM; at CSF1R [2], 5 to 20 nM.

`O[C@H]1CCCCC1Nc1nc2ccc(Cn3cnc4ccccc43)cc2s1` (stereo in doubt) [Example 7, (1S,2S)-2-((6-((1H-benzo[d]imidazol-1-yl)methyl)benzo[d]thiazol-2-yl)amino)cyclohexanol]: the concentration for half-maximal inhibition (IC50) on CSF1R [1] (setting [3]) was in the range of 50 to 200 nM; in the assay on M-NFS-60 cells (setting [4]), 400 to 1500 nM. For the same molecule, the Kd at PDGFRβ was at most 50 nM; on FLT3, 200 to 1000 nM; at KIT it was 100 to 500 nM; on CSF1R [2], 5 to 20 nM.

For `COc1cc2ncn(Cc3ccc4nc(N[C@@H]5CCCC5O)sc4c3)c2cc1OC` (stereo in doubt) [Example 20, (1R,2R)-2-((6-((5,6-dimethoxy-1H-benzo[d]imidazol-1-yl)methyl)benzo[d]thiazol-2-yl)amino)cyclopentanol], the IC50 on CSF1R [1] (setting [3]) was 200 to 500 nM; in the assay on M-NFS-60 cells (setting [4]), over 1500 nM. In addition, the dissociation constant Kd on PDGFRβ was over 2000 nM; on FLT3, 1000 to 5000 nM; on KIT it was over 2000 nM; on CSF1R [2], 20 to 50 nM.

As for `O[C@H]1CCCCC1Nc1nc2ccc(Cn3cnc4cc(F)cnc43)cc2s1` (stereo in doubt) [Example 213, (1S,2S)-2-((6-((6-fluoro-3H-imidazo[4,5-b]pyridin-3-yl)methyl)benzo[d]thiazol-2-yl)amino)cyclohexanol], the IC50 on CSF1R [1] (HEK293 cells, M-CSF stimulated CSF1R phosphorylation, MSD) was 50 to 200 nM; in the assay with M-NFS-60 cells (M-NFS-60 cell proliferation), 50 to 400 nM. Also, the Kd on PDGFRβ (competition binding) is at most 50 nM; at FLT3 (competition binding) it was 200 to 1000 nM; on KIT (competition binding), at most 100 nM; at CSF1R [2] (competition binding), at most 5 nM.

Consider `O[C@@H]1CCCC[C@H]1Nc1nc2ccc(Cn3cnc4ncccc43)cc2s1` [Example 5, (1R,2R)-2-((6-((1H-imidazo[4,5-b]pyridin-1-yl)methyl)benzo[d]thiazol-2-yl)amino)cyclohexanol], for which the half-maximal inhibitory concentration (IC50) is over 500 nM at CSF1R [1] (setting [3]) and over 1500 nM with M-NFS-60 cells (setting [4]). For the same molecule, the equilibrium dissociation constant (Kd) on PDGFRβ was over 2000 nM; at FLT3, over 5000 nM; at KIT, over 2000 nM; on CSF1R [2] it was over 50 nM.

Turning to `O[C@@H]1CCCC[C@H]1Nc1nc2ccc(Cn3cnc4ccccc43)cc2s1` [Example 6, (1R,2R)-2-((6-((1H-benzo[d]imidazol-1-yl)methyl)benzo[d]thiazol-2-yl)amino)cyclohexanol], the results for the IC50 at CSF1R [1] (setting [3]) and in the assay with M-NFS-60 cells (setting [4]) were 50 to 200 nM and 50 to 400 nM, respectively. The dissociation constant Kd was 50 to 500 nM at PDGFRβ, at most 200 nM at FLT3, 100 to 500 nM at KIT and 5 to 20 nM on CSF1R [2].
